# Measurements taken from patent US4719220A, “15(R)-5-fluoroprostacyclins, pharmaceutical compositions and anti-thrombotic methods of use thereof” (G. D. Searle & Co., priority 1986, dated 1988).
# Structures can show the parent of a compound that is named as a salt.
# Tests used:
# [1] = test system: mean blood pressure / platelet aggregation; conditions: sodium salts, cited from earlier work; for ratio of blood pressure lowering activity and platelet aggregation inhibiting activity: dose for 20% lowering of mean blood pressure / minimum concentration for 50% inhibition of aggregation, PGI2 = 1; for platelet aggregation inhibition in comparison with blood pressure lowering, compared to PGI2: EP Publication No. 0054795
# mean arterial pressure [2] = experiment: Hexamethonium Rat hypotensive activity (spontaneously hypertensive rats); type: in vivo; conditions: iv bolus
# Protocol: Hexamethonium Rat (Duration)
# Spontaneously hypertensive rats (300-400 g.) are anesthetized with 100 mg/kg barbital/25 mg/kg pentobarbital ip. The jugular vein and carotid artery are then cannulated with polyethylene-50 tubing (for drug administration and blood pressure measurement, respectively). A tracheotomy tube is inserted and animals breathe 100% O2 spontaneously. Body temperature is maintained at 37° C. with a thermister probe and heat lamp. Rats are then dosed with 1 mg/kg hexamethonium, iv bolus. After a 10-minute stabilization period, animals are dosed with compound. All compounds are dissolved in either glycine buffer or saline and given in a volume of 1 ml kg. Approximate ED50 doses are administered iv bolus and mean arterial pressure (MAP) is recorded every 30 seconds for 5 minutes, then every minute for a 15-20 minute period or until pressure returns to baseline. Changes in MAP (compared to pre-treatment values) are analyzed with a paired t-test.
# [3] = test system: ADP-Thrombocytopenia (platelet numbers); experiment: In vivo ADP-thrombocytopenia; set-up: species or system rat; conditions: rats; for In vivo (ADP-Thrombocytopenia) ED50: Table I, infusion right jugular vein five minutes, ADP 0.5 mg/kg; for Anti-Aggregatory in vivo (ADP-Thrombocytopenia) ED50: Table II
# Protocol: In vivo ADP-thrombocytopenia
# Vehicle/compound in saline is infused for five minutes in the right jugular vein of rats (400-500 g) anesthetized with pentobarbital. Adenosine diphosphate (0.5 mg/kg) in saline is immediately infused for one minute in the left jugular vein. Blood samples are drawn (1:10 into 3.8% citrate) and platelets counted on a Coulter counter and platelet numbers in treated animals are compared to controls. The ED50 (effectiVe dose in 50% of treated animals--μg/kg/minute) for compound activity is calculated from linear regression.
# [4] = test system: ADP-induced platelet aggregation; experiment: In vitro ADP aggregation (platelet-rich plasma); type: cell-based; conditions: Table I; rat platelet-rich plasma, ADP 1-2 uM
# Protocol: Rationale: The changes in optical density resulting from ADP-stimulation of platelet-rich plasma is used to identify compounds which inhibit or reverse platelet activation.
# 1. Platelet-rich plasma (PRP) is obtained from citrated whole rat blood.
# 2. Compound solutions are prepared at the initial screening dose of 1×1O^-4 M.
# 3. The prostacyclin (PGI2) standard is prepared in 0.lM NaOH-glycine (pH 10.0) over a range of 10^-9 -10^-8 M.
# 4. ADP in saline is added to PRP over a range of 1-2 uM to determine a concentration eliciting maximum aggregation within one minute.
# 5. PRP containing standard or test compound is preincubated for 1 minute and then stimulated with ADP. Vehicle controls are tested simultaneously.
# 6. The aggregation wave generated is monitored until the reversal phase is observed.
# 7. Platelet aggregation is quantified as the units of depth between the baseline and maximum depth.
# 8. Dose-response curves are generated for percent inhibition of ADP-induced platelet aggregation.
# 9. In vitro activity of the compounds screened is assessed by comparison of IC50 (M) with that of PGI2.
# mean arterial pressure [5] = experiment: Hypotensive Activity in Normotensive Rats; type: in vivo, normotensive Sprague-Dawley rats; conditions: Table II; for ED (25 mm Hg): Rattus norvegicus, iv, bolus i.v., dose lowering pressure 25 mm Hg, read-out: Blood Pressure ED25; for Therapeutic Index (Blood Pressure ED25 / Anti-Aggregatory): ED25 blood pressure over ED50 ADP-thrombocytopenia
# Protocol: Hypotensive Activity in Normotensive Rats.
# Normotensive Sprague-Dawley rats (weighing 400 to 500 g) are anesthetized wrth 100 mg/kg barbital/25 mg/kg pentobarbital intraperitoneally. The jugular vein and carotid artery are then cannulated with polyethylene-50 tubing (for drug administration and blood pressure measurement, respectively). A tracheotomy tube is inserted and animals breath 100% O2 spontaneously.
# Also, body temperature is maintained at 37° C. with a thermister probe and heat lamp. After a 10 to 15 minute stabilization period, bolus i.v. injections of compound are given and responses (decrease in mean arterial pressure in mm Hg) are recorded. A linear regression analysis is then performed on the data to yield the following information:
# EDO --threshold dose or dose at which an effect is first observed.
# ED50 --the dose which causes 50% of the maximal response slope of the regression line in mm Hg.
# When blood pressure lowering effects are minimal, an ED50 cannot be determined and, instead, an ED25 (dose which lowers the maximal pressure 25 mm Hg) is calculated.
# blood pressure = conditions: U.S. Pat. No. 4,178,367; cited from earlier work
structure (smiles),measurement,setting,value
"CCCCCC(O)C=CC1C(O)CC2OC(=C(Cl)CCCC(=O)[O-])CC21.[Na+] (stereo not drawn) [5-chloro derivative, 5-chloro-PGI2 sodium salt]",ratio of blood pressure lowering activity and platelet aggregation inhibiting activity,[1],4
same,"platelet aggregation inhibition in comparison with blood pressure lowering, compared to PGI2",[1],stronger activities with respect to the inhibition of platelet aggregation in comparison with their blood pressure lowering activities compared to PGI2
"CCCCCC(O)C=CC1C(O)CC2OC(=CCCCC(=O)[O-])C(F)C21.[Na+] (stereo not drawn) [7-fluoro derivative, 7-fluoro-PGI2 sodium salt]",ratio of blood pressure lowering activity and platelet aggregation inhibiting activity,[1],32
same,"platelet aggregation inhibition in comparison with blood pressure lowering, compared to PGI2",[1],stronger activities with respect to the inhibition of platelet aggregation in comparison with their blood pressure lowering activities compared to PGI2
"O=C(O)CCC/C(F)=C1/C[C@@H]2[C@@H](/C=C/[C@@H](O)C3CCCC3)[C@H](O)C[C@@H]2O1 [(5F,15S)]","Blood Pressure Hexamethonium Rat, Blood Pressure/dose (decrease)",mean arterial pressure [2]; 10 μg/kg,-104 mm/Hg
same,In vivo (ADP-Thrombocytopenia) ED50,[3],0.87 µg/kg/min
same,IC50,[4],11 nM
"O=C(O)CCC[C@@H](F)C1=C[C@@H]2[C@@H](/C=C/[C@H](O)C3CCCC3)[C@H](O)C[C@@H]2O1 [(5R,15R), 15-cyclopentyl-6,9α-Epoxy-5R-fluoro-11α,15R-dihydroxy-16,17,18,19,20-pentanorprosta-6,13E-dien-1-oic acid, sodium salt]",ED (25 mm Hg),mean arterial pressure [5],0.501 mg/kg
same,Therapeutic Index (Blood Pressure ED25 / Anti-Aggregatory),mean arterial pressure [5],217.8
same,In vivo (ADP-Thrombocytopenia) ED50,[3],2.3 µg/kg/min
same,Anti-Aggregatory in vivo (ADP-Thrombocytopenia) ED50,[3],2.3 µg/kg/min
same,IC50,[4],600 nM
"O=C(O)CCC[C@@H](F)C1=C[C@@H]2[C@@H](/C=C/[C@@H](O)C3CCCC3)[C@H](O)C[C@@H]2O1 [(5R,15S)]",ED (25 mm Hg),mean arterial pressure [5],0.0026 mg/kg
same,Therapeutic Index (Blood Pressure ED25 / Anti-Aggregatory),mean arterial pressure [5],0.87
same,"Blood Pressure Hexamethonium Rat, Blood Pressure/dose (decrease)",mean arterial pressure [2]; 10 μg/kg,-47 mm/Hg
same,In vivo (ADP-Thrombocytopenia) ED50,[3],3.0 µg/kg/min
same,Anti-Aggregatory in vivo (ADP-Thrombocytopenia) ED50,[3],3.0 µg/kg/min
same,IC50,[4],190 nM
"O=C(O)CCC[C@H](F)C1=C[C@@H]2[C@@H](/C=C/[C@H](O)C3CCCC3)[C@H](O)C[C@@H]2O1 [(5S,15R), 15-cyclopentyl-6,9α-Epoxy-5S-fluoro-11α, 15R-dihydroxy-16,17,18,19,20-pentanorprosta-6,13E-dien-1-oic acid, sodium salt]","Blood Pressure Hexamethonium Rat, Blood Pressure/dose (decrease)",mean arterial pressure [2]; 100 μg/kg,Inactive
same,In vivo (ADP-Thrombocytopenia) ED50,[3],3.3 µg/kg/min
same,IC50,[4],8600 nM
"O=C(O)CCC[C@H](F)C1=C[C@@H]2[C@@H](/C=C/[C@@H](O)C3CCCC3)[C@H](O)C[C@@H]2O1 [(5S,15S)]","Blood Pressure Hexamethonium Rat, Blood Pressure/dose (decrease)",mean arterial pressure [2]; 10 μg/kg,-42 mm/Hg
same,In vivo (ADP-Thrombocytopenia) ED50,[3],2.3 µg/kg/min
same,IC50,[4],100 nM
"CCCC1CCC([C@H](O)/C=C/[C@@H]2[C@H]3C/C(=C/CCCC(=O)OC)O[C@H]3C[C@H]2O)C1 (stereo partly drawn) [(5Z, 13E)-(9α,11α,15S)-6,9-epoxy-11,15-dihydroxy-15-(3 propyl)cyclopentyl-16, 17, 18, 19, 20-pentanorprosta-5,13-dienoic acid methyl ester]",blood pressure lowering activity compared to a 15R derivative,blood pressure,greater blood pressure lowering activity
O=C(O)CCC/C=C1/C[C@@H]2[C@@H](/C=C/[C@H](O)C3CCCC3)[C@H](O)C[C@@H]2O1 [(15R)],"Blood Pressure Hexamethonium Rat, Blood Pressure/dose (decrease)",mean arterial pressure [2]; 100 μg/kg,-76 mm/Hg
same,IC50,[4],630 nM
O=C(O)CCC/C=C1/C[C@@H]2[C@@H](/C=C/[C@@H](O)C3CCCC3)[C@H](O)C[C@@H]2O1 [(15S)],"Blood Pressure Hexamethonium Rat, Blood Pressure/dose (decrease)",mean arterial pressure [2]; 0.2 μg/kg,-83 mm/Hg
same,IC50,[4],76 nM
"CCCCC[C@H](O)/C=C/[C@@H]1[C@H]2C/C(=C/CCCC(=O)O)O[C@H]2C[C@H]1O [PGI2, (5Z)-9-deoxy-6,9α-epoxy-Δ^5 -PGF1]",ratio of blood pressure lowering activity and platelet aggregation inhibiting activity,[1],1
